The record followed here is patent publication US9187497B2, “Substituted pyrido[3,2-e]pyrrolo[1,2-a]pyrazines as inhibitors of poly(ADP-ribose)polymerase (PARP)” (Takeda Phamaceutical Company Limited, priority 2009, dated 2015).

For one data set, the system named is Jurkat cell line. Kind of data set: PARP cellular chemopotentiation assay (MTS cell viability with and without TMZ). Format: cell-based. The conditions noted are these: ratio of EC50 for inhibition of cell viability without and with 100 μM TMZ; Jurkat cells, 96 hours of treatment. The method in brief:
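Jurkat cells, 10,000/well, pre-cultured 24 h, then treated 96 h with serial compound dilutions (0.5% DMSO) with or without 100 μM TMZ. Viability by MTS conversion (OD490), normalized to DMSO controls; EC50 from curve fits, PF50 = EC50 without TMZ / EC50 with TMZ.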

The next data set deals with T1, PARP (Homo sapiens, UniProt P09874).
T1 construct: purchased Trevigen 4684-096-01 (enzyme); kit 4684-096-K HT
T1 sequence (P09874 whole entry): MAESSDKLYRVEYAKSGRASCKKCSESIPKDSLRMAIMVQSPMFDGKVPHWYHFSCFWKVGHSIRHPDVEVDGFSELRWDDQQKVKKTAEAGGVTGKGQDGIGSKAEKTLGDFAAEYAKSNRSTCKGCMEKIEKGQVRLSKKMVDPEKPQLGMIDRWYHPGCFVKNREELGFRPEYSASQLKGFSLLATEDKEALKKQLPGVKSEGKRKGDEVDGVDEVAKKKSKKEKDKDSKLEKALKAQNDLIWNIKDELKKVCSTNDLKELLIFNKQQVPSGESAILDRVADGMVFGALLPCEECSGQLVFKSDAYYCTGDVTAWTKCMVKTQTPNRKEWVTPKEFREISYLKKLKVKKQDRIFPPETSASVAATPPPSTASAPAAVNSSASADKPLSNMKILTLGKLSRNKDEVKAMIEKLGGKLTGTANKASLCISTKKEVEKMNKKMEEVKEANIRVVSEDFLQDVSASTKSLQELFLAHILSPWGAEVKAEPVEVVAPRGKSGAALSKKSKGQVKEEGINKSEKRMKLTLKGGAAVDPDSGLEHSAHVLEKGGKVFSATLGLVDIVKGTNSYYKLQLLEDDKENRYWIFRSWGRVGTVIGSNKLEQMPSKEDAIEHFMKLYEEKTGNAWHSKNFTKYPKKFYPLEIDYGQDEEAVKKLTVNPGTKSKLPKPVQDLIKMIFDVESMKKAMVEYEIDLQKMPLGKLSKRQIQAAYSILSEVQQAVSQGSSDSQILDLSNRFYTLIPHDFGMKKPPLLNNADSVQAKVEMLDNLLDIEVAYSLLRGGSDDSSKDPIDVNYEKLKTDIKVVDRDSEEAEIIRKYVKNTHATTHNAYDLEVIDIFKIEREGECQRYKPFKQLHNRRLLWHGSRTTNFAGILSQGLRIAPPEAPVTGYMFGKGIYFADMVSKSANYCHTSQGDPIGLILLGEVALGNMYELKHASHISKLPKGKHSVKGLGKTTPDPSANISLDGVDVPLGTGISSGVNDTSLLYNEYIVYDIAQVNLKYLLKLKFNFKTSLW
In words: PARP ELISA colorimetric assay of inhibition of PARP catalytic activity (IC50). Type of data set: biochemical. Conditions: pIC50=-log(IC50), IC50 in molar concentration; ELISA-based PARP kit, 10 minutes of catalysis. In a few lines:
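Human PARP was added as a 0.1 nM solution to histone-coated wells with compound for a 10-min ambient preincubation. The reaction was started with 100 μM NAD+ solution plus activated DNA and run 10 min. PAR formation was detected by anti-PAR ELISA, colorimetric. IC50 came from a 12-point, 3-fold gradient fitted by nonlinear least squares to a Hill equation.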
Background: ELISA stands for enzyme-linked immunosorbent assay.

In data set [1] the target is T2, catalytic domain of Human PARP (Homo sapiens, UniProt P09874).
T2 construct: The catalytic domain of Human PARP was cloned and prepared; made in house
T2 sequence (P09874 788-1014 limits assumed): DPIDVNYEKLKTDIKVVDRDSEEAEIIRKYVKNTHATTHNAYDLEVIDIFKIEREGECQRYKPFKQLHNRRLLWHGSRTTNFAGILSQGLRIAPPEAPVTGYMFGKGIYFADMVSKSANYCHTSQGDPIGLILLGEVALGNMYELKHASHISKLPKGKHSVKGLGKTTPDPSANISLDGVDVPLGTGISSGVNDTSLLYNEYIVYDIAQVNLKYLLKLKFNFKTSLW
Kind of data set: Biacore surface plasmon resonance affinity assay (dissociation constant KD). The conditions noted are these: pKD=-log(KD), KD in molar concentration; Biacore T100, 25° C. Format: binding. The protocol: Dissociation Constant (KD) from Surface Plasmon Resonance
The catalytic domain of Human PARP was cloned and prepared as described in Kinoshita, T.; Nakanishi, I.; Warizaya, M.; Iwashita, A.; Kido, Y.; Hattori, K. and Fujii, T. 2006 FEBS Letters 556, 43-46. Purified enzyme was stored at −80° C. in 25 mM Tris(hydroxymethyl)aminomethane (Tris) pH 7.4, 150 mM NaCl, 2 mM dithiothreitol (DTT) at a concentration of 6 mg/ml.
Biacore affinity assays for test compounds were conducted on a Biacore T100 (GE Healthcare) as follows. A Series S Sensor Chip CM5 (part number BR-1006-68, GE Healthcare) was activated for amide coupling with an Amine Coupling Kit (part number BR-1000-50, GE Healthcare) as described by the manufacturer. The mobile phase buffer consisted of Biacore buffer HBS-P (part number BR-1003-68, GE Healthcare) supplemented with 1% v/v dimethylsulfoxide (DMSO), 0.5 mM Tris(2-carboxyethyl)phosphine hydrochloride (TCEP), and 5 mM MgCl2. Enzyme samples (2 μl/6 mg/ml) stored at −80° C. were diluted to 0.080 mg/ml with 10 mM 4-morpholineethanesulfonic acid (MES) pH 6.5 and then mounted on the activated Biacore CM5 chip at a flow rate of 10 μl/min for 240 seconds. When successfully mounted, a signal of approximately 8,000 reflective units was observed. Test compounds were diluted 9 times 2-fold serially in mobile phase buffer (listed above) at 1% v/v DMSO final to generate a concentration gradient bracketing their anticipated KDs. Biacore mounted PARP was given a 1 minute exposure (association phase) to various concentrations of test compounds to observe a steady state equilibrium or an on rate. The exposure was followed with a dissociation phase of 5 minutes. The association and dissociation phases were at a flow rate of 50 μl/min and a temperature of 25° C.
Parameters Rmax (response at saturation) and KD (binding constant) were calculated through a nonlinear least squares fitting of the equation to the data by use of the Biacore T100 analysis software.
Parameter optimization was through a nonlinear least squares analysis of the association phase Response=Rmax*(1−exp(−(kon[cmpd]+koff)*t)) and dissociation phase Response=[…] by use of the Biacore T100 analysis software. The binding constant KD was calculated from the definition KD=koff/kon
(SPR reads the build-up and loss of mass on a sensor chip optically.)

For `CCNC(=O)c1ccc(N2CCN(Cc3cnc4c(c3)NC(=O)[C@@H]3CSCCN43)CC2)cc1` [Compound 92, (R)—N-ethyl-4-(4-((6-oxo-5,6,6a,7,9,10-hexahydropyrido[3,2-e][1,4]thiazino[4,3-a]pyrazin-3-yl)methyl)piperazin-1-yl)benzamide], the melting point came to 288.9 °C. The PF50 with Jurkat cell line was greater than 5000.

In turn, `O=C1Nc2cc(CN3CC=C(c4ccc(Cl)cc4)CC3)cnc2N2CCCCC12` (centres unmarked) [Compound 65, 3-((4-(4-chlorophenyl)-5,6-dihydropyridin-1(2H)-yl)methyl)-7,8,9,10-tetrahydro-5H-dipyrido[1,2-a:3′,2′-e]pyrazin-6(6aH)-one] showed an IC50 at PARP of no more than 12.6 nM. In data set [1], the Kd is no less than 1000 nM. Besides, the PF50 in the data set with Jurkat cell line is greater than 10.

Molecule `O=C1CN(Cc2ccccc2)c2ncc(CN3CCC(c4ccc(Cl)cc4)CC3)cc2N1` [Compound 85, 4-benzyl-7-((4-(4-chlorophenyl)piperidin-1-yl)methyl)-3,4-dihydropyrido[2,3-b]pyrazin-2(1H)-one] had an IC50 against PARP of 15.8 to 39.8 nM. Further, the Kd in data set [1] is 31.6 to 794 nM. The PF50 result in the data set with Jurkat cell line was “≧0”.

In the case of `CN1CC(=O)Nc2cc(CN3CC=C(c4ccc(Cl)cc4)CC3)cnc21` [Compound 80, 7-((4-(4-chlorophenyl)-5,6-dihydropyridin-1(2H)-yl)methyl)-4-methyl-3,4-dihydropyrido[2,3-b]pyrazin-2(1H)-one], the IC50 against PARP is no less than 50.1 nM. This molecule had a Kd in data set [1] of less than 31.6 nM. In addition, the PF50 result with Jurkat cell line was “≧0”.

Molecule `O=C1Nc2cc(CN3CC=C(c4ccc(Cl)cc4)CC3)cnc2N2CCSCC12` (centres unmarked) [Compound 86, 3-((4-(4-chlorophenyl)-5,6-dihydropyridin-1(2H)-yl)methyl)-6a,7,9,10-tetrahydropyrido[3,2-e][1,4]thiazino[4,3-a]pyrazin-6(5H)-one] showed an IC50 at PARP of 15.8 to 39.8 nM. Further, the Kd in data set [1] is less than 31.6 nM. The PF50 in the data set with Jurkat cell line was greater than 500.

For the molecule `O=C1Nc2cc(CN3CCN(c4ccc(Cl)cc4)CC3)cnc2N2CCCCC12` (centres unmarked) [Compound 66, 3-((4-(4-chlorophenyl)piperazin-1-yl)methyl)-7,8,9,10-tetrahydro-5H-dipyrido[1,2-a:3′,2′-e]pyrazin-6(6aH)-one], on PARP, the IC50 was 15.8 to 39.8 nM. In addition, the Kd in data set [1] was no less than 1000 nM. Besides, the PF50 in the data set with Jurkat cell line is given as greater than 10.

The molecule `O=C1CN(Cc2ccccc2)c2ncc(CN3CCN(c4ccc(Cl)cc4)CC3)cc2N1` [Compound 84, 4-benzyl-7-((4-(4-chlorophenyl)piperazin-1-yl)methyl)-3,4-dihydropyrido[2,3-b]pyrazin-2(1H)-one] had an IC50 on PARP of no more than 12.6 nM. In data set [1], this molecule showed a dissociation constant Kd of 31.6 to 794 nM. Further, in the data set on Jurkat cell line, the PF50 entry is on record as “≧0”.

Regarding `O=C1Nc2cc(CN3CCC(c4ccc(Cl)cc4)CC3)cnc2N2CCSCC12` (centres unmarked) [Compound 88, 3-((4-(4-chlorophenyl)piperidin-1-yl)methyl)-6a,7,9,10-tetrahydropyrido[3,2-e][1,4]thiazino[4,3-a]pyrazin-6(5H)-one], at PARP, the IC50 was no more than 12.6 nM. This molecule gave a Kd in data set [1] of less than 31.6 nM. The PF50 entry in the data set on Jurkat cell line is “≧0”.

In the case of `CCNC(=O)c1ccc(N2CCN(Cc3cnc4c(c3)NC(=O)[C@@H]3CCCN43)CC2)cc1` [Compound 10, (S)—N-ethyl-4-(4-((6-oxo-5,6,6a,7,8,9-hexahydropyrido[3,2-e]pyrrolo[1,2-a]pyrazin-3-yl)methyl)piperazin-1-yl)benzamide], at PARP, the IC50 is no more than 12.6 nM. Also, the Kd in data set [1] was less than 31.6 nM. Moreover, the PF50 with Jurkat cell line was greater than 5000.

On PARP, `C[C@H]1C(=O)Nc2cc(CN3CCC(c4ccc(Cl)cc4)CC3)cnc2N1C` [Compound 53, (S)-7-((4-(4-chlorophenyl)piperidin-1-yl)methyl)-3,4-dimethyl-3,4-dihydropyrido[3,2-b]pyrazin-2(1H)-one] showed an IC50 of no less than 50.1 nM. Moreover, the Kd in data set [1] is 31.6 to 794 nM. Moreover, the PF50 entry in the data set with Jurkat cell line is “≧0”.

A word on the melting point: it is the temperature, or range, at which the solid turns liquid. Usually IC50 stands for the concentration that inhibits the measured activity by half. Read a high IC50 as weaker potency. As usually defined, the Kd is the concentration at which binding is half-saturated.
